# In patent US12286439B2, “Inhibitors of ERK nuclear translocation” (Yeda Research and Development Co. Ltd., priority 2018, dated 2025):
# “Also recorded” adds a separate entry of the source.
# Key:
# Type in all cases: cell-based
# [1] = tested on: RSK1 phosphorylation (cytoplasmic target of ERK1/2); assay: Western blot, phosphorylated RSK1; conditions: 10 μM, 2 hours; TPA; A2185 or HeLa cells
# Protocol: (§1) CoIP assay was conducted using αERK1 (C-terminus) antibodies conjugated to protein A/G agarose beads. The precipitates were analyzed by Western blot using the indicated antibodies. Whole cell lysates (WCL) and αIgG-mouse (IgG) are shown as controls. […] Cell extracts were analyzed by Western blot with the indicated antibodies. […] The same extracts described in (B) were subjected to Western blot analysis using αpAkt Abs. The closest molecular weight marker (kDa) is shown on the right of all relevant panels.
# (§2) Bars indicate average of 2 independent experiments done in triplicate ±SE. […] Empty squares represent individual data points of proliferation. Full squares indicate average proliferation of 2 independent experiments done in triplicate ±SE. […] Cell viability (as shown in FIGS. 8A and 8B) was measured by staining with methylene blue, and data presents proliferation normalized to DMSO control. […] Cell lysates were analyzed by Western blot with the corresponding antibodies. Closest molecular marker is indicated at the right of each panel.
# (§3) Preparation of Cellular Extracts and Western Blotting:
# (§4) Cells were grown to 70% confluence and serum starved (0.1% FCS, 16 hours). After treatments, cells were rinsed twice with ice-cold PBS−/− and scraped into RIPA buffer. […]
# [2] = tested on: A2185, A2352, HeLa and MCF7 cells; assay: Viability assay (methylene blue), four cancer lines; conditions: 72 hours, 1% FCS, in 3 or 4 cell lines, read-out: reduction of cell viability
# Protocol: (§5) Four cancer cells, A2185, A2352, HeLa and MCF7 were grown in 1% FCS containing 10 μM of either EPE peptide, or Compounds Z56, Z1, Z2 or Z3, for 72 hours. Bars indicate average of 2 independent experiments done in triplicate ±SE. FIG. 8B presents dose response curves for Compounds Z56, Z1 and Z2. A2185 cells were grown in 1% FCS containing DMSO (0.1%) EPE or Scramble (Scr) peptide (10 μM), Compounds Z56, Z1, Z2, Z3 ([…]) or no treatment (FCS 1%) for 72 hours. Empty squares represent individual data points of proliferation. Full squares indicate average proliferation of 2 independent experiments done in triplicate ±SE. Bold horizontal line indicates arbitrary threshold (40%) for what is considered an active compound. Cell viability (as shown in FIGS. 8A and 8B) was measured by staining with methylene blue, and data presents proliferation normalized to DMSO control. […] Cell lysates were analyzed by Western blot with the corresponding antibodies. […]
# (§6) Cells were seeded at low confluence into 24, 48 or 96-well plates in complete medium. […] Color was extracted by adding 0.1 M HCl (3 hours, 23° C.), and absorbance measured at 595 nm in an ELISA reader. For time course experiments, attached cells were fixed and measured at 0, 24, 48, 72 and 96 hours. […]
# [3] = tested on: ERK1/2 nuclear translocation; assay: Determination of ERK1/2 localization by fluorescence microscopy after TPA stimulation; conditions: 10 μM, 2 hours, TPA 100 nM, 15 minutes
# How it was run: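 HeLa, A2185 and A2352 melanoma cells treated with compounds for 2 h around TPA stimulation, then fixed (4% PFA), permeabilized and stained with anti-ERK antibodies, fluorescent secondaries and DAPI. Nuclear ERK1/2 localization scored by fluorescence microscopy (×40).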
# [4] = tested on: ERK1/2 phosphorylated at the TEY activation loop motif; assay: Western blot, ERK1/2 activation loop (TEY) phosphorylation; conditions: 10 μM, 2 hours; TPA; A2185 or HeLa cells
# Protocol: as §1, §2, §3, §4
# [5] = tested on: Elk1 phosphorylation (nuclear target of ERK1/2); assay: Western blot, phosphorylated Elk1; conditions: 10 μM, 2 hours; TPA; melanoma cell line A2185
# Protocol: as §1, §2, §3, §4
# A2185 cells = assay: Viability assay, dose response in A2185 cells; conditions: 0.1-10 μM, 72 hours, 1% FCS
# Protocol: as §5, §6
# [6] = tested on: c-Myc phosphorylation (nuclear target of ERK1/2); assay: Western blot, phosphorylated c-Myc; conditions: 10 μM, 2 hours; TPA; both A2185 and HeLa cells
# Protocol: as §1, §2, §3, §4
smiles,measurement,setting,value
O=C(OC1C=CS(=O)(=O)C1)c1ccccc1 (centres unmarked) [Compound Z2],phosphorylation of the cytosolic target RSK1/2,[1],"none of Compounds Z56, Z1, Z2 or Z3 affected"
same,cytotoxicity at 10 µM,[2],~60%
same,nuclear accumulation of ERK1/2 upon TPA stimulation,[3]; A2185 and A2352 cells,inhibited
same,stimulated nuclear translocation of ERK1/2,"[3]; A2352, A2185 and HeLa cells",significantly reduced
same,phosphorylation of the activation loop of ERK1/2,[4],"none of Compounds Z56, Z1, Z2 or Z3 affected"
same,levels of phosphorylated Elk1,[5],decreased significantly
same,"cell viability, dose response curve",A2185 cells,dose dependent manner; also recorded: somewhat less potent than Compound Z56
same,levels of phosphorylated c-Myc,[6],decreased
